From patent US9028887B2, “Method improve spatial memory via pterostilbene administration” (The United States of America, as represented by the …, priority 2007, dated 2015)

Test system: M1-transfected COS-7 cells
Assay: Calcium recovery in M1-transfected COS-7 cells after dopamine treatment and oxotremorine-induced depolarization
Type: cell-based, African green monkey
Conditions: then 1 mM dopamine 4 hours, 750 μM oxotremorine depolarization
Description: COS-7 cells, a cell line derived from African green monkey kidney, were grown in Dulbecco's Modified Eagle's Medium (D-MEM) supplemented with 10% fetal bovine serum (FBS) and containing 100 U/ml penicillin and 100 μg/ml streptomycin sulfate. Twenty four hours prior to transfection, cells were harvested with trypsin, counted, and plated on […] tissue culture plates at 5×10^6 cells/plate. Cells were transiently transfected with rat muscarinic receptor subtype 1 DNA by the DEAE-dextran method. After transfection, cells were incubated 2.5 hours in growth medium containing 80 μM chloroquine to minimize degradation of the DNA. Transfected cells were then maintained in growth medium for 48 hours, harvested with trypsin, plated to coverslips in 35 mm plates for calcium imaging, and incubated overnight.
Dis. 6:403-411, and hereby incorporated by reference. The BB extract and stilbenes were dissolved in growth media and cells were subsequently incubated for 45 minutes at 37° C. with the treated growth medium, followed by dopamine administration for 4 hours. Following these incubations, the cells were washed three times with extract-free growth medium prior to testing.
Calcium imaging was carried out using a Medical Systems Corp. open perfusion micro-incubator (37° C.) with temperature control that was mounted on the stage of a Nikon Eclipse TE200U microscope and illuminated with a fluorescent light source. Transfected cells were loaded with Fura-2/acetoxymethyl ester (2 μM) in loading medium (99% DMEM 1% FES) for 40 minutes at 37° C. with 5% CO2.
Real time analyses of calcium flux prior to and following 750 μM oxotremorine-induced depolarization were then carried out using Simple PCI software (Compix, Inc. Mars, Pa.). Response and recovery were then determined for each sample. […] Recovery was determined by assessing the time (within 300 sec) for the Ca^2+ levels to return to 20% of the increase following depolarization in the cells that responded. Data was analyzed by Kruskal-Wallis one-way analysis of variance and Mann-Whitney U tests.

| SMILES | protection against dopamine-induced decreases in Ca2+ Recovery (10 μg/ml pre-treatment 45 min) | protection against dopamine-induced decreases in Ca2+ Recovery (50 μg/ml pre-treatment 45 min) | also measured |
| --- | --- | --- | --- |
| COc1ccc(/C=C/c2cc(O)cc(O)c2)cc1 [desoxyrhapontigenin, trans-3,5-dihydroxy-4′-methoxystilbene] |  |  | protection against dopamine-induced decreases in Ca2+ Recovery (25 μg/ml pre-treatment 45 min): offered no protection |
| Oc1cc(O)cc(/C=C/c2ccc(O)c(O)c2)c1 [piceatannol, trans-3,4,3′,5′-tetrahydroxystilbene] | protected against the dopamine-induced decreases in Recovery |  |  |
| COc1cc(O)cc(/C=C/c2ccc(O)cc2)c1 [pinostilbene, trans-3,4′-dihydroxy-5-methoxystilbene] |  | offered no protection |  |
| COc1cc(/C=C/c2ccc(O[C@@H]3O[C@H](CO)[C@@H](O)[C@H](O)[C@H]3O)cc2)cc(OC)c1 [pterostilbene glucoside] | protected against the dopamine-induced decreases in Recovery |  |  |
| COc1ccc(/C=C/c2cc(OC)cc(OC)c2)cc1 [resveratrol trimethylether, trans-3,5,4′-trimethyletherstilbene] | protected against the dopamine-induced decreases in Recovery |  |  |
| Oc1ccc(/C=C/c2cc(O)cc(O)c2)cc1 [resveratrol, trans-3,5,4′-trihydroxystilbene] |  | offered no protection |  |
